Earlier results as cited in patent US7109191B2, “Benzazepinone alpha vintegrin receptor antagonists” (Merck & Co., Inc., priority 2001, dated 2006).

Tested on: postmenopausal osteoporotic women
Conditions: after a median of 22 months of treatment

## hPTH(1–34): human parathyroid hormone 1–34 fragment (SVSEIQLMHNLGKHLNSMERVEWLRKKLQDVHNF; Parathyroid hormone; UniProt P01270 32-65, looked up, fragment)
  reduction in nonvertebral fractures: 54%
  reduction in spine fractures: ≥ 65%
